The record followed here is US20100075917A1, “THIONUCLEOSIDES AND PHARMACEUTICAL APPLICATIONS” (priority 2006, published 2010).

For one series, the system named is human CEM T4 lymphocytes. Briefly: Cytotoxic effect on CEM T4 lymphocytes. The format is cell-based. Also noted: unit not given beside the values. The following applies: Tables 5 and 7, CEM cells.
In the next series the test system is HeLa cells. In words: Cytotoxic effect on HeLa cells. The following applies: Tables 5 and 7, HeLa cells. Also noted: unit not given beside the values. The format is cell-based.
Series [1] relates to L1210/0 murine leukemia cells. In words: Cytotoxic effect on L1210/0 cells. The format is cell-based. The note with it: Tables 5 and 7, L1210/0 cells.
The subject of series [2] is HIV-2. In words: Anti-HIV-2 effect in CEM/TK− cells. The series is classed as cell-based. The following applies: Human immunodeficiency virus 2, CEM-TK(-); Third Series; CEM cells having no thymidine kinase activity. As to the method:
(§1) The evaluation test is described in Roy, B.; Chambert, S.; Lepoivre M.; Aubertin, A.-M.; Balzarini, J.; Décout, J.-L., Deoxyribonucleoside 2′- or 3′-mixed disulfides: prodrugs to target ribonucleotide reductase and/or to inhibit HIV reverse transcription. J. Med. Chem. 2003, 46, 2565-2568.
(§2) The toxicity and the antiviral activities were measured at different concentrations, and their evolution as a function of the concentration makes it possible to evaluate: • the concentration at which 50% of the cells are dead in the absence of virus (CC 50) for each of the test compounds, from the change in absorbance at 540 nm of formazan as a function of the concentration of test compound, • the concentration of compound that leads to a 50% reduction in the activity of viral reverse transcriptase (EC 50). This concentration is determined from the curve representing the change in the percentage of “remaining reverse transcriptase” activity (defined as being the ratio of the activity of the reverse transcriptase in the presence of the test compound to that of the untreated cells) as a function of the concentration of test compound.
(§3) EC50: concentration required to afford 50% protection to the CEM cells against the cytopathogenicity of HIV;
• Effect in CEM not expressing thymidine kinase activity (CEM/TK^−, cells having no thymidine kinase activity).

Series [3] has as its system FM3A/0 murine mammary carcinoma cells. In words: Cytotoxic effect on FM3A/0 cells. Set-up: unit not given beside the values. The format is cell-based. The following applies: Tables 5 and 7, FM3A/0 cells.
The subject of another series is Moloney sarcoma virus. Briefly: Inhibition of transformation of mouse embryo C3H/3T3 cells induced by Moloney sarcoma virus. The series is classed as cell-based. Also noted: MIC (minimum inhibitory concentration): unit not given here. The following applies: for EC50: C3H/3T3, read-out: EC50 (effective concentration 50%); for MIC (minimum inhibitory concentration): C3H/3T3 cells, a second bound is given in brackets for some compounds. An excerpt: 2.2. Inhibitory Effect on the Transformation of Mouse Embryo C3H/3T3 Cells Induced by Moloney Sarcoma Virus (Model of Infection with HIV)

Another series concerns human CEM cells. Briefly: Cytotoxicity (MTT) on CEM cells. The series is classed as cell-based. The note with it: Homo sapiens, CCRF-CEM, Tables 4 and 6, CEM cells; some values 'then plateau'. How it is done:
The cytotoxic effect of a compound is studied on human CEM cells and MCF-7 mammary carcinoma cells that are or are not resistant to gemcitabine, which is an anticancer nucleoside used in chemotherapy.
The cytotoxicity (CC50) was estimated by measuring the reduction of 3-(4,5-dimethylthiazol-2-yl)-2,5-diphenyltetrazolium bromide (MTT), which is converted into insoluble violet formazan. To do this, 100 000 cells (human CEM-SS or MCF-7 lines) are inoculated per well in 100 μl of culture medium, in 96-well microtitration plates. After 24 hours, the test products are added in 100 μl and incubation is continued for 48 to 72 hours. MIT is then added in a proportion of 20 μl of a solution at 5 mg/ml in PBS. Three hours later, 100 μl of a DMF/acetic acid/HCl/SDS (sodium dodecyl sulfate) solution are added. After 3 hours at 37° C., the absorbance of the formazan is measured at 590 nm and compared with that of the untreated control.

The test system of series [4] is HIV-2. In words: Anti-HIV-2 effect in CEM cells. The series is classed as cell-based. The note with it: Human immunodeficiency virus 2, CCRF-CEM, CEM cells, read-out: EC50 HIV-2. As to the method:
as §1, §2, §3

A further series concerns HIV-1. In words: Anti-HIV-1 effect in CEM cells. The series is classed as cell-based. The following applies: Human immunodeficiency virus 1, CCRF-CEM, read-out: EC50 HIV-1. How it is done: as §1, §2, §3
For the next series, the system named is human Molt4/C8 cells. Briefly: Cytotoxic effect on Molt4/C8 cells. The following applies: Tables 5 and 7, Molt4/C8 cells. The format is cell-based.
Series [5] in a line: Cytotoxic concentration in CEM cells (antiviral tests). The series is classed as cell-based, human. The note with it: human; First and Second Series, second table; viability of CEM cells. As to the method: as §2
(§4) CC50: cytotoxic concentration or concentration required to reduce the viability of the CEM cells by 50%.

The next series has as its system CEM cells. The description is as above. The note with it: First and Second Series, second table; viability of CEM cells. The series is classed as cell-based, human. As to the method: as §2, §4
The mark [6] stands for this setting: First and Second Series, second table.

Molecules are shown by their SMILES. Read-outs that look alike come from different tables or passages of the source.

`Cc1cn([C@H]2C[C@H](SSCCO)[C@@H](CO)O2)c(=O)[nH]c1=O` [Compound 21, 3′-deoxythymidin-3′-yl 2-hydroxyethyl disulfide]: the “cytotoxic effect, CEM” value in the series with human CEM T4 lymphocytes is listed as 347 ± 71. Moreover, the “cytotoxic effect, HeLa” value in the series with HeLa cells was “≧100”. Moreover, the “cytotoxic effect, L1210/0” value in [1] was determined as 26 ± 3. In addition, the EC50 in the series on HIV-2 [2] is greater than 50 µM; with Moloney sarcoma virus, 5.9 ± 0.5 µM; with human CEM cells, greater than 200 µM; with HIV-2 [4] (setting [6]), 14 ± 7 µM; with HIV-2 [4] (Third Series) it was 15 ± 7 µM; with HIV-1 (setting [6]), 13.5 ± 3 µM. In addition, the EC50 in the series on HIV-1 (Third Series) amounted to 17.5 ± 3.5 µM. The “cytotoxic effect, FM3A/0” value in series [3] is listed as greater than 500. For the same compound, the “MIC (minimum inhibitory concentration)” value against Moloney sarcoma virus is greater than 100. Besides, in the series on human Molt4/C8 cells, the “cytotoxic effect, Molt4/C8” value turned out to be 128 ± 33. In series [5], this compound displayed a 50% cytotoxic concentration (CC50) greater than 250 µM.

On to `Cc1cn([C@H]2C[C@H](SSC(Cl)(Cl)Cl)[C@@H](CO)O2)c(=O)[nH]c1=O` [Compound 22, 3′-deoxythymidin-3′-yl trichloromethyl disulfide], for which the “cytotoxic effect, CEM” value in the series with human CEM T4 lymphocytes was 121 ± 18. Also, the “cytotoxic effect, HeLa” value in the series on HeLa cells came to 39 ± 10. In [1], the “cytotoxic effect, L1210/0” value was 45 ± 1. In addition, the EC50 was 22.5 ± 3.5 µM in the series on HIV-2 [2]; 21 µM with human CEM cells; 17.5 ± 3.5 µM in the series with HIV-2 [4] (setting [6]); 27.5 ± 3.5 µM in the series on HIV-2 [4] (Third Series); 25 µM in the series on HIV-1 (setting [6]); 20 µM with HIV-1 (Third Series). In addition, the “cytotoxic effect, FM3A/0” value in series [3] is on record as 244 ± 49. Also, in the series on human Molt4/C8 cells, the “cytotoxic effect, Molt4/C8” value is 55 ± 19. Also, in the series on CEM cells, the CC50 turned out to be 103 ± 4 µM.

In the case of `CCCCSS[C@H]1C[C@H](n2cc(C)c(=O)[nH]c2=O)O[C@@H]1CO` [Compound 24, 3′-deoxythymidin-3′-yl butyl disulfide], the “cytotoxic effect, CEM” value with human CEM T4 lymphocytes turned out to be 44 ± 1. The “cytotoxic effect, HeLa” value with HeLa cells came out at 23 ± 2. Besides, the “cytotoxic effect, L1210/0” value in series [1] was 32 ± 0. Moreover, the EC50 was greater than 10 µM in the series with HIV-2 [2]; 1 ± 0.5 µM in the series on Moloney sarcoma virus; greater than 10 µM with HIV-2 [4] (setting [6]); greater than 10 µM in the series on HIV-2 [4] (Third Series); 8 ± 3 µM in the series on HIV-1 (setting [6]); greater than 10 µM in the series with HIV-1 (Third Series). For the same compound, the “cytotoxic effect, FM3A/0” value in [3] is listed as 286 ± 24. Further, the “MIC (minimum inhibitory concentration)” value against Moloney sarcoma virus stood at 100. In addition, the “cytotoxic effect, Molt4/C8” value in the series on human Molt4/C8 cells stood at 28 ± 7. In the series on CEM cells, this compound registered a CC50 of 23.3 ± 0.6 µM.

By CC50 is commonly meant the concentration at which the toxic effect on the cells reaches its halfway point.
